Measurements from patent US5128447A, “Synthetic peptide antagonists of neurokinin A, salts thereof and respective preparation processes” (A. Menarini Industrie Farmaceutiche Riunite S.r.l., priority 1989, dated 1992).
Non-standard residues stand in square brackets, D forms with d. Residues, ends and D or L forms follow the SMILES beside them.

These compounds were tested against T1, neurokinin A receptor (NK-2 receptor) (Rattus norvegicus, UniProt P16610) (assay: cell-based).
T1 sequence (P16610 1-390): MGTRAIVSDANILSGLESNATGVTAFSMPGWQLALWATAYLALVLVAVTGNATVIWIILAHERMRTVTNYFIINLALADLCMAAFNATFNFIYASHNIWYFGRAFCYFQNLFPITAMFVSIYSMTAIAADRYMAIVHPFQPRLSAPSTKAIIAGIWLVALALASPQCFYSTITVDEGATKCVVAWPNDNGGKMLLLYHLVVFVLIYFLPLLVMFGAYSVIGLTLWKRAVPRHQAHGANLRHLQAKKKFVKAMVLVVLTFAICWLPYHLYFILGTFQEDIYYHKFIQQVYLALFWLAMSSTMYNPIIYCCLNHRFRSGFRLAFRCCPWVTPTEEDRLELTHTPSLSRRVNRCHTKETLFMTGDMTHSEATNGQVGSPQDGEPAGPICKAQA
Procedure: The capacity of the peptides described in the present invention of interacting with the neurokinin A receptor as agonists or antagonists was evaluated by means of an in vitro assay using a preparation, in which the biological response produced by tachykinin and related peptides is exclusively determined by the neuro-kinin A receptor (NK-2 receptor). Such a preparation is the isolated vas deferens of rats, where the tachykinins produce a potentiation of the contractions caused by the intramural nerves following an electrical stimulation. The determination of the activity of the peptides in this preparation was carried out as described by Rovero et al. (Neuropeptides 10, 355, 1987). The agonistic activity of the peptides assayed is expressed as pD2, which represents the […] of the molar concentration of agonist which produces 50% of the maximum effect. […] The pD2 were calculated according to Van Rossum (Arch. Int. Pharmacodyn. 143, 249, 1963), and the pA 2 were calculated from the analysis of the Schild plot (O. Arunlakshana and H. O. Schild, Br. J. Pharmacol., 14, 48, 1959).
The agonists produce a potentiation of the contractions caused by the nerve of the isolated vas deferens of rats. The antagonistic activity is evaluated as the capacity of the product to produce a parallel displacement towards the right of the concentration/response curve of neurokinin A after a contact time of 15 minutes.
With `CSCC[C@H](NC(=O)[C@@H](Cc1c[nH]c2ccccc12)NC(=O)[C@@H](Cc1c[nH]c2ccccc12)NC(=O)[C@@H](NC(=O)[C@@H](Cc1c[nH]c2ccccc12)NC(=O)[C@H](Cc1ccc(O)cc1)NC(=O)[C@H](CC(=O)O)NC(=O)[C@@H](N)CCCNC(=N)N)C(C)C)C(N)=O` [H--Arg--Asp--Tyr--DTrp--Val--DTrp--DTrp--Met--NH2] (H-RDY[dW]V[dW][dW]M-NH2) the Kb was 251 nM.
For `CC(C)[C@H](NC(=O)[C@@H](Cc1c[nH]c2ccccc12)NC(=O)[C@H](Cc1ccc(O)cc1)NC(=O)[C@H](CC(=O)O)NC(=O)[C@@H](N)CCCNC(=N)N)C(=O)N[C@H](Cc1c[nH]c2ccccc12)C(=O)N[C@H](Cc1c[nH]c2ccccc12)C(=O)N[C@@H](Cc1ccccc1)C(N)=O` [H--Arg--Asp--Tyr--DTrp--Val--DTrp--DTrp--Phe--NH2] (H-RDY[dW]V[dW][dW]F-NH2), the Kb was 575 nM.
`CC(C)[C@H](NC(=O)[C@@H](Cc1c[nH]c2ccccc12)NC(=O)[C@H](Cc1ccc(O)cc1)NC(=O)[C@@H](N)CC(=O)O)C(=O)N[C@H](Cc1c[nH]c2ccccc12)C(=O)N[C@H](Cc1c[nH]c2ccccc12)C(=O)N[C@@H](CCCNC(=N)N)C(N)=O` [H--Asp--Tyr--DTrp--Val--DTrp--DTrp--Arg--NH2] (H-DY[dW]V[dW][dW]R-NH2) gave a Kb of 251 nM.
With `CC(C)[C@H](NC(=O)[C@@H](Cc1c[nH]c2ccccc12)NC(=O)[C@H](Cc1ccc(O)cc1)NC(=O)[C@@H](N)CC(=O)O)C(=O)N[C@H](Cc1c[nH]c2ccccc12)C(=O)N[C@H](Cc1c[nH]c2ccccc12)C(=O)N[C@@H](Cc1ccc(O)cc1)C(N)=O` [H--Asp--Tyr--DTrp--Val--DTrp--DTrp--Tyr--NH2] (H-DY[dW]V[dW][dW]Y-NH2) the Kb was 191 nM.
Compound `CC(C)[C@H](NC(=O)[C@@H](Cc1c[nH]c2ccccc12)NC(=O)[C@H](Cc1ccc(O)cc1)NC(=O)[C@H](CC(=O)O)NC(=O)[C@@H](N)CCCCN)C(=O)N[C@H](Cc1c[nH]c2ccccc12)C(=O)N[C@H](Cc1c[nH]c2ccccc12)C(=O)N[C@@H](CCCNC(=N)N)C(N)=O` [H--Lys--Asp--Tyr--DTrp--Val--DTrp--DTrp--Arg--NH2] (H-KDY[dW]V[dW][dW]R-NH2) has a Kb of 339 nM.
Work on `CC(C)[C@H](NC(=O)[C@@H](Cc1c[nH]c2ccccc12)NC(=O)[C@H](Cc1ccc(O)cc1)NC(=O)[C@H](CC(=O)O)NC(=O)[C@@H](N)[C@@H](C)O)C(=O)N[C@H](Cc1c[nH]c2ccccc12)C(=O)N[C@H](Cc1c[nH]c2ccccc12)C(=O)N[C@@H](CCCNC(=N)N)C(N)=O` [H--Thr--Asp--Tyr--DTrp--Val--DTrp--DTrp--Arg--NH2] (H-TDY[dW]V[dW][dW]R-NH2) yielded a Kb of 251 nM.
For `CC(C)[C@H](NC(=O)[C@@H](Cc1c[nH]c2ccccc12)NC(=O)[C@H](Cc1ccc(O)cc1)NC(=O)[C@H](CC(=O)O)NC(=O)[C@@H](N)CCCNC(=N)N)C(=O)N[C@H](Cc1c[nH]c2ccccc12)C(=O)N[C@H](Cc1c[nH]c2ccccc12)C(=O)N[C@@H](CCCNC(=N)N)C(N)=O` [H-Arg-Asp-Tyr-DTrp-Val-DTrp-DTrp-Arg-NH2] (H-RDY[dW]V[dW][dW]R-NH2), the Kb was 316 nM.
Compound `CC(C)[C@H](NC(=O)[C@@H](Cc1c[nH]c2ccccc12)NC(=O)[C@H](Cc1ccc(O)cc1)NC(=O)[C@@H](N)CC(=O)O)C(=O)N[C@H](Cc1c[nH]c2ccccc12)C(=O)N[C@H](Cc1c[nH]c2ccccc12)C(=O)N[C@H](Cc1c[nH]c2ccccc12)C(N)=O` [H-Asp-Tyr-DTrp-Val-DTrp-DTrp-DTrp-NH2] (H-DY[dW]V[dW][dW][dW]-NH2) has a Kb of 155 nM.
`CSCC[C@H](NC(=O)[C@H](CC(C)C)NC(=O)CNC(=O)[C@@H](NC(=O)[C@H](Cc1ccccc1)NC(=O)[C@H](CO)NC(=O)[C@@H](N)CC(=O)O)C(C)C)C(N)=O` [NKA(4-10), reference compound] was tested, and the EC50 was 1050 nM.
